Measured values taken from ChEMBL document CHEMBL1150015, “Rational design of purine nucleoside phosphorylase inhibitors: Design of 2-(2-Haloethyl) and 2-ethenyl substituted quinazolinone alkylating agents” (Bioorg Med Chem Lett, 1992).

Target: T1, Purine nucleoside phosphorylase (Homo sapiens) (UniProt P00491)
T1 sequence (whole entry): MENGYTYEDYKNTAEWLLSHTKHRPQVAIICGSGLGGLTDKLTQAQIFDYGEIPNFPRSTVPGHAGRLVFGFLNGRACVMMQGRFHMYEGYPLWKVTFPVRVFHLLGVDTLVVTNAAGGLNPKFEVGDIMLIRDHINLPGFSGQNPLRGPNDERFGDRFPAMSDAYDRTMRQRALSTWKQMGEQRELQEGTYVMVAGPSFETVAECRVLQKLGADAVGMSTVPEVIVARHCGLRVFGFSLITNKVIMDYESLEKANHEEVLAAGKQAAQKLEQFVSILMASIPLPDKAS
Assay: Second order rate constant for the inactivation of Purine Nucleoside Phosphorylase by compound in 0.05 M Phosphate Buffer and at a pH 7.4 (u=0.1 KCl) at 30.0 degree Centigrade

k	SMILES
3.1 M⁻¹ s⁻¹	C=Cc1nc(O)c2c(n1)C(=O)C=CC2=O
4.73 M⁻¹ s⁻¹	Nc1nc(O)c2c(n1)C(=O)C=CC2=O
3.7 M⁻¹ s⁻¹	O=C1C=CC(=O)c2c(O)nc(CBr)nc21
7.97 M⁻¹ s⁻¹	O=C1C=CC(=O)c2c(O)nc(CCBr)nc21
15.9 M⁻¹ s⁻¹	O=C1C=CC(=O)c2c(O)nc(-c3ccccc3)nc21
1.62 M⁻¹ s⁻¹	O=C1C=CC(=O)c2c(O)ncnc21
